Measurements: US12552826B2, “PRMT5 inhibitors” (Merck Sharp & Dohme LLC, priority 2018, dated 2026)

Each compound was assayed against T1, PRMT5 (Homo sapiens, UniProt O14744) (assay: PRMT5 Cell Target Engagement (TE) Assay). Details: MCF-7 cells, 3 days treatment, nuclear SDMA by high content imaging.
T1 construct: endogenous in cells; host or cells: MCF-7
Format: cell-based
Excerpt: The PRMT5 TE assay is a biomarker assay for identifying compounds that inhibit symmetric dimethylation of arginine (SDMA) of PRMT5 substrates. The following substrates have been reported for PRMT5: Histone H2A and H4 R3, Histone H3 R2, Histone H3 R8, spliceosome Sm proteins, ribosomal protein RPS10, p53, FEN1, nucleoplasmin, nucleolin, EGFR and EBNA. The assay will focus on detecting symmetrically dimethylated nuclear proteins using high content imaging technology. Detection of the expression of symmetrically dimethylated nuclear proteins is through a mixture of primary rabbit monoclonal antibodies to SDMA (CST 13222), which in turn recognized by an Alexafluor 488 dye-conjugated anti-rabbit IgG secondary antibody. The IN Cell Analyzer 2200 or Opera-Phenix measures nuclear Alexafluor 488 fluorescent dye intensity that is directly related to the level of expression of symmetrically dimethylated nuclear proteins at the single cell level. Nuclear AF488 dye intensities are compared to the mean value for DMSO treated cells (MIN) to report percent of inhibition for each compound-treated well.
In this assay, the cell potency (EC50) of each compound was determined from a ten point (1:3 serial dilution; top compound concentration of 10000 nM) titration curve using the following outlined procedure. Each well of a BD falcon collagen coated black/clear bottom 384-well plate was seeded with 4000 MCF-7 cells in 30 μl media and allowed to attach for 5 hours. Media is ATCC-formulated Eagle's Minimum Essential Medium, Catalog No. 30-2003. The following components were added to the base medium: 0.01 mg/mL human recombinant insulin; fetal bovine serum to a final concentration of 10%. Additional 30 μl of media containing 2× compounds were added to each well. Cells were treated for 3 days in 37° C. CO2 incubator. On day 3, cells were fixed with Cytofix, permeabilized with 0.4% Triton-X-100/Cytofix, and washed with D-PBS without Ca/Mg. Cells were blocked with Licor Odessey blocking reagent for 1 hour at room temperature, followed by incubation with anti-SDMA (1:1000) antibody at 4° C. overnight. 1° antibody was removed, followed by three washings with DPBS without Ca/Mg and 0.05% Tween20. Hoechst (5 μg/mL), Cell Mask deep stain (1:2000) and Alexa488-conjugated goat anti-rabbit IgG (2 μg/mL) was added for 1 hour at room temperature. A final washing step (three washes) was performed before sealing plate for imaging on In Cell Analyzer 2200 or Opera-Phenix. Images from analyzer were uploaded to Columbus for image analysis. IC50 values were determined by 4 parameters robust fit of percent fluorescence units vs. (Log10) compound concentrations.

T1 sequence (O14744 whole entry): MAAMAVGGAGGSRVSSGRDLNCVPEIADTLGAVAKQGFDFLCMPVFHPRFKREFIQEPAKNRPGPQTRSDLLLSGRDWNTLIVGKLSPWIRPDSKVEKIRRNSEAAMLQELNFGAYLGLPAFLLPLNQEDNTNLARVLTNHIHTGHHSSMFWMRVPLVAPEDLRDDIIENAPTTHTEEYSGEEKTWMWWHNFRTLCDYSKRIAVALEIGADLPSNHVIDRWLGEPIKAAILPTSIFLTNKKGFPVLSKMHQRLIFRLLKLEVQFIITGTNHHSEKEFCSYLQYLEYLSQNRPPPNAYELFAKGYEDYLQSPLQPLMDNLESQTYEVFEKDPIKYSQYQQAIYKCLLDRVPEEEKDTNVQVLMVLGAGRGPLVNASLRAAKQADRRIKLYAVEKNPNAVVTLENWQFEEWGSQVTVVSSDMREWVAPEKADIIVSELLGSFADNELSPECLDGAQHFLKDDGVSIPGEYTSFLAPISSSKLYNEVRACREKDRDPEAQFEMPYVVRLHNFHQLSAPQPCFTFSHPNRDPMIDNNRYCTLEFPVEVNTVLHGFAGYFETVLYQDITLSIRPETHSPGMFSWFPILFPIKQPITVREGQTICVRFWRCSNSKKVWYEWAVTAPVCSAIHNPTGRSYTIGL
T1 sequence (Q9BQA1 whole entry partner): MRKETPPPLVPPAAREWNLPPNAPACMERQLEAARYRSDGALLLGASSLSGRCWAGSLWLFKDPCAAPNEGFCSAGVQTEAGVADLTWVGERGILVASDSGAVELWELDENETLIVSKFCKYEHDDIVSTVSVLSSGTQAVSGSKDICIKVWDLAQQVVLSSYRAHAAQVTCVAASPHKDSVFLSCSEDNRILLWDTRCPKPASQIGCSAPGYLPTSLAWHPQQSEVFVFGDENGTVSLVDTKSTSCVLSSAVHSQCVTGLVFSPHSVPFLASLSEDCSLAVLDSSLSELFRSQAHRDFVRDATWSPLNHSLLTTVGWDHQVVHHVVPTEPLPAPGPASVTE

Q: `C[C@]1(O)[C@@H](O)[C@H](n2ccc3c(N)ncnc32)O[C@@H]1[C@](C)(O)c1cc(C(F)F)c(F)c2c1CNCC2` [Example 10, (2R,3S,4R,5R)-5-(4-amino-7H-pyrrolo[2,3-d]pyrimidin-7-yl)-2-((R)-1-(6-(difluoromethyl)-5-fluoro-1,2,3,4-tetrahydroisoquinolin-8-yl)-1-hydroxyethyl)-3-methyltetrahydrofuran-3,4-diol] was tested. Which EC50 did it give?
A: Its EC50 is 0.0056 µM.

Q: For `C[C@]1(O)[C@@H](O)[C@H](n2ccc3c(N)ncnc32)O[C@@H]1[C@](C)(O)c1cc(C(F)F)ccn1` [Example 76, 7-{6-deoxy-5-C-[4-(difluoromethyl)pyridin-2-yl]-3-C-methyl-alpha-L-talofuranosyl}-7H-pyrrolo[2,3-d]pyrimidin-4-amine], which EC50 is on record?
A: Its EC50 is 1.2 µM.

Q: For `C[C@@]1(O)[C@@H]([C@@H](O)c2cc(F)cc(C(F)(F)F)c2)O[C@@H](n2ccc3c(N)ncnc32)[C@@H]1O` [Example 59, 7-{(5S)-5-C-[3-fluoro-5-(trifluoromethyl)phenyl]-3-C-methyl-beta-D-ribofuranosyl}-7H-pyrrolo[2,3-d]pyrimidin-4-amine], which EC50 is on record?
A: Its EC50 is greater than 10 µM.

Q: `Cc1cccc([C@H](O)[C@H]2O[C@@H](n3ccc4c(N)ncnc43)[C@H](O)[C@]2(C)O)c1` [Example 39, 7-[(5S)-3-C-methyl-5-C-(3-methylphenyl)-beta-D-ribofuranosyl]-7H-pyrrolo[2,3-d]pyrimidin-4-amine] was tested. Which EC50 did it give?
A: The EC50 was greater than 10 µM.

Q: With `Cc1ncnc2c1ccn2[C@@H]1O[C@H]([C@H](C)c2cc(C(F)F)c(F)c3c2CNCC3)[C@@](C)(O)[C@H]1O` (single isomer, unassigned) [Example 92] as the compound, how does the EC50 read?
A: The EC50 was 0.278 µM.

Q: For `COc1ccc([C@@H](O)[C@H]2O[C@@H](n3ccc4c(N)ncnc43)[C@H](O)[C@]2(C)O)cc1` [Example 32, 7-[(5R)-5-C-(4-methoxyphenyl)-3-C-methyl-beta-D-ribofuranosyl]-7H-pyrrolo[2,3-d]pyrimidin-4-amine], which EC50 is on record?
A: Its EC50 is 2.74 µM.

Q: For `C[C@]1(O)[C@@H](O)[C@H](n2ccc3c(N)ncnc32)O[C@@H]1[C@](C)(O)c1cccc(C(F)F)c1` [Example 62, 7-{6-deoxy-5-C-[3-(difluoromethyl)phenyl]-3-C-methyl-alpha-L-talofuranosyl}-7H-pyrrolo[2,3-d]pyrimidin-4-amine], which EC50 is on record?
A: The EC50 was 0.0094 µM.

Q: `C[C@@]1(O)[C@@H]([C@H](O)c2ccc(F)c(F)c2F)O[C@@H](n2ccc3c(N)ncnc32)[C@@H]1O` [Example 50, 7-[(5R)-3-C-methyl-5-C-(2,3,4-trifluorophenyl)-beta-D-ribofuranosyl]-7H-pyrrolo[2,3-d]pyrimidin-4-amine] was tested. Which EC50 did it give?
A: The EC50 was 3.24 µM.

Q: Which EC50 does the source give for `C[C@@]1(O)[C@@H]([C@H](O)c2cccc(F)c2F)O[C@@H](n2ccc3c(N)ncnc32)[C@@H]1O` [Example 44, 7-[(5R)-5-C-(2,3-difluorophenyl)-3-C-methyl-beta-D-ribofuranosyl]-7H-pyrrolo[2,3-d]pyrimidin-4-amine] here?
A: Its EC50 is 1.06 µM.

Q: How did the EC50 turn out when `Cc1cccc([C@@H](O)[C@H]2O[C@@H](n3ccc4c(N)ncnc43)[C@H](O)[C@]2(C)O)c1` [Example 38, 7-[(5R)-3-C-methyl-5-C-(3-methylphenyl)-beta-D-ribofuranosyl]-7H-pyrrolo[2,3-d]pyrimidin-4-amine] was run?
A: The EC50 was 0.166 µM.

Q: How did the EC50 turn out when `Cc1ccc([C@@H](O)[C@H]2O[C@@H](n3ccc4c(N)ncnc43)[C@H](O)[C@]2(C)O)cc1` [Example 30, 7-[(5R)-3-C-methyl-5-C-(4-methylphenyl)-beta-D-ribofuranosyl]-7H-pyrrolo[2,3-d]pyrimidin-4-amine] was run?
A: The EC50 was 3.17 µM.

Q: Which EC50 does the source give for `C[C@@]1(O)[C@@H]([C@H](O)c2ccccc2)O[C@@H](n2ccc3c(N)ncnc32)[C@@H]1O` [Example 11, 7-[(5R)-3-C-methyl-5-C-phenyl-beta-D-ribofuranosyl]-7H-pyrrolo[2,3-d]pyrimidin-4-amine] here?
A: The EC50 was 0.202 µM.

Q: `C[C@]1(O)[C@@H](O)[C@H](n2ccc3c(N)ncnc32)O[C@@H]1[C@](C)(O)c1ccnc(C(F)F)c1` [Example 80, 7-{6-deoxy-5-C-[2-(difluoromethyl)pyridin-4-yl]-3-C-methyl-alpha-L-talofuranosyl}-7H-pyrrolo[2,3-d]pyrimidin-4-amine] was tested. Which EC50 did it give?
A: Its EC50 is 0.36 µM.

Q: `Cc1ncnc2c1ccn2[C@@H]1O[C@H]([C@H](O)c2cc(C(F)F)c(F)c3c2CNCC3)[C@@](C)(O)[C@H]1O` (single isomer, unassigned) [Example 89] was tested. Which EC50 did it give?
A: The EC50 was 0.076 µM.

Q: For `C[C@@]1(O)[C@@H]([C@H](O)c2ccc(F)cc2Cl)O[C@@H](n2ccc3c(N)ncnc32)[C@@H]1O` [Example 48, 7-[(5R)-5-C-(2-chloro-4-fluorophenyl)-3-C-methyl-beta-D-ribofuranosyl]-7H-pyrrolo[2,3-d]pyrimidin-4-amine], which EC50 is on record?
A: Its EC50 is greater than 10 µM.

Q: For `C[C@@]1(O)[C@@H]([C@@H](O)c2cc(F)cc(C(F)F)c2)O[C@@H](n2ccc3c(N)ncnc32)[C@@H]1O` [Example 5, (2R,3S,4R,5R)-5-(4-amino-7H-pyrrolo[2,3-d]pyrimidin-7-yl)-2-((S)-(3-(difluoromethyl)-5-fluorophenyl)(hydroxy)methyl)-3-methyltetrahydrofuran-3,4-diol], which EC50 is on record?
A: The EC50 was 5.06 µM.

Q: `C[C@]1(O)[C@@H](O)[C@H](n2ccc3c(N)ncnc32)O[C@@H]1[C@](C)(O)c1cc(F)cc(C(F)F)c1` [Example 66, 7-{6-deoxy-5-C-[3-(difluoromethyl)-5-fluorophenyl]-3-C-methyl-alpha-L-talofuranosyl}-7H-pyrrolo[2,3-d]pyrimidin-4-amine] was tested. Which EC50 did it give?
A: The EC50 was 0.004 µM.

Q: For `C[C@@]1(O)[C@@H]([C@@H](O)c2cc(F)c(F)c(F)c2)O[C@@H](n2ccc3c(N)ncnc32)[C@@H]1O` [Example 35, 7-[(5S)-3-C-methyl-5-C-(3,4,5-trifluorophenyl)-beta-D-ribofuranosyl]-7H-pyrrolo[2,3-d]pyrimidin-4-amine], which EC50 is on record?
A: Its EC50 is greater than 10 µM.

Q: Which EC50 does the source give for `C[C@@]1(O)[C@@H]([C@H](O)c2ccc(F)cc2)O[C@@H](n2ccc3c(N)ncnc32)[C@@H]1O` [Example 24, 7-[(5R)-5-C-(4-fluorophenyl)-3-C-methyl-beta-D-ribofuranosyl]-7H-pyrrolo[2,3-d]pyrimidin-4-amine] here?
A: Its EC50 is 0.474 µM.

Q: With `C[C@@]1(O)[C@@H]([C@@H](O)c2ccccc2)O[C@@H](n2ccc3c(N)ncnc32)[C@@H]1O` [Example 12, 7-[(5S)-3-C-methyl-5-C-phenyl-beta-D-ribofuranosyl]-7H-pyrrolo[2,3-d]pyrimidin-4-amine] as the compound, how does the EC50 read?
A: Its EC50 is greater than 10 µM.

Q: With `C[C@]1(O)[C@@H](O)[C@H](n2ccc3c(N)ncnc32)O[C@@H]1[C@](C)(O)c1cncc(C(F)F)c1` [Example 77, 7-{6-deoxy-5-C-[5-(difluoromethyl)pyridin-3-yl]-3-C-methyl-alpha-L-talofuranosyl}-7H-pyrrolo[2,3-d]pyrimidin-4-amine] as the compound, how does the EC50 read?
A: The EC50 was 1.33 µM.

Q: With `C[C@@]1(O)[C@@H]([C@H](O)c2cc(F)cc(F)c2F)O[C@@H](n2ccc3c(N)ncnc32)[C@@H]1O` [Example 52, 7-[(5R)-3-C-methyl-5-C-(2,3,5-trifluorophenyl)-beta-D-ribofuranosyl]-7H-pyrrolo[2,3-d]pyrimidin-4-amine] as the compound, how does the EC50 read?
A: Its EC50 is 0.141 µM.

Q: Which EC50 does the source give for `C[C@@]1(O)[C@@H]([C@@H](O)c2ccc(Cl)c(Cl)c2)O[C@@H](n2ccc3c(N)ncnc32)[C@@H]1O` [Example 14, 7-[(5S)-5-C-(3,4-dichlorophenyl)-3-C-methyl-beta-D-ribofuranosyl]-7H-pyrrolo[2,3-d]pyrimidin-4-amine] here?
A: The EC50 was greater than 10 µM.

Q: How did the EC50 turn out when `C[C@@]1(O)[C@@H]([C@H](O)c2cncc(C(F)F)c2)O[C@@H](n2ccc3c(N)ncnc32)[C@@H]1O` [Example 74, 7-{(5R)-5-C-[5-(difluoromethyl)pyridin-3-yl]-3-C-methyl-beta-D-ribofuranosyl}-7H-pyrrolo[2,3-d]pyrimidin-4-amine] was run?
A: Its EC50 is 2.71 µM.

Q: For `C[C@@]1(O)[C@@H]([C@H](O)c2cc(F)cc(F)c2)O[C@@H](n2ccc3c(N)ncnc32)[C@@H]1O` [Example 22, 7-[(5R)-5-C-(3,5-difluorophenyl)-3-C-methyl-beta-D-ribofuranosyl]-7H-pyrrolo[2,3-d]pyrimidin-4-amine], which EC50 is on record?
A: The EC50 was 0.059 µM.

Q: `C[C@@]1(O)[C@@H]([C@@H](O)c2cc(Cl)cc(C(F)(F)F)c2)O[C@@H](n2ccc3c(N)ncnc32)[C@@H]1O` [Example 61, 7-{(5S)-5-C-[3-chloro-5-(trifluoromethyl)phenyl]-3-C-methyl-beta-D-ribofuranosyl}-7H-pyrrolo[2,3-d]pyrimidin-4-amine] was tested. Which EC50 did it give?
A: Its EC50 is greater than 10 µM.

Q: For `C[C@@]1(O)[C@@H]([C@@H](O)c2cc(F)c(F)c(C(F)F)c2)O[C@@H](n2ccc3c(N)ncnc32)[C@@H]1O` [Example 65, 7-{(5S)-5-C-[3-(difluoromethyl)-4,5-difluorophenyl]-3-C-methyl-beta-D-ribofuranosyl}-7H-pyrrolo[2,3-d]pyrimidin-4-amine], which EC50 is on record?
A: Its EC50 is greater than 10 µM.
